Results: patent US7056931B2, “2-substituted 1,2,3,4-tetrahydroquinolines and derivatives thereof, compositions and methods” (Eli Lilly and Company, priority 2001, dated 2006)

Tests used:
[1] = biological target: T1, ERAlpha receptor (PanVera) (Homo sapiens, UniProt P03372); experiment: ER competition binding assay (3H-Estradiol), ERalpha; details: IC50 converted to Ki by Cheng-Prusoff; 3H-Estradiol competition; A = class at 10 microMolar; read-out: Ki (ERα)
T1 construct: purchased PanVera
T1 sequence (P03372 1-595): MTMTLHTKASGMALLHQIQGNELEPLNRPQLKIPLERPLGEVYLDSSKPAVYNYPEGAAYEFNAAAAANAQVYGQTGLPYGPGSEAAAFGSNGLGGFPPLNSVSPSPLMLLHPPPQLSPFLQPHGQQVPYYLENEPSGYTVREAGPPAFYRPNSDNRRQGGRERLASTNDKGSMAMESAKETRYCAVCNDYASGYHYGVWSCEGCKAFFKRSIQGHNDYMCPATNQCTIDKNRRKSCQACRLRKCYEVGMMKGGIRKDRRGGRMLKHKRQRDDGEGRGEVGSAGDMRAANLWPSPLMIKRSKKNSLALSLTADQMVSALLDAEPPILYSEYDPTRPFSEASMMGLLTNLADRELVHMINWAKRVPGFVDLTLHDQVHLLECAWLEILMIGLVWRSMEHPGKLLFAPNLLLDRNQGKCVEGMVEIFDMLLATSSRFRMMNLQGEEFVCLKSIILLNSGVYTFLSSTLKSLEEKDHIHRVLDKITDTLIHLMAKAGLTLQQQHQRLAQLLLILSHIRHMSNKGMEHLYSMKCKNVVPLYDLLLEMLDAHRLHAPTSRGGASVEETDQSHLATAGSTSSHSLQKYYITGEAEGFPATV
Protocol: (§1) Competition binding assay is run in a buffer containing 50 mM Hepes, pH 7.5, 1.5 mM EDTA, 150 mM NaCl, 10% glycerol, 1 mg/ml ovalbumin and 5 mM DTT, using 0.025 μCi per well ^3H-Estradiol(NEN #NET517 at 118 Ci/mmol, 1 mCi/ml), 10 ng/well ERAlpha or ERbeta receptor (PanVera). Competing compounds are added at 10 different concentrations. Non-specific binding is determined in the presence of 1 μM of 17-B Estradiol. The binding reaction (140 μl) is incubated for 4 hours at room temperature, then 70 μl of cold DCC buffer is added to each reaction (DCC buffer contains per 50 ml of assay buffer, 0.75 g of charcoal (Sigma) and 0.25 g of dextran (Pharmacia)). Plates are mixed 8 minutes on an orbital shaker at 4° C. Plates are then centrifuged at 3,000 rpm at 4° C. for 10 minutes. An aliquot of 120 μl of the-mix is transferred to another 96-well, white flat bottom plate (Costar) and 175 μl of Wallac Optiphase “Hisafe 3” scintillation fluid is added to each well. Plates are sealed and shaken vigorously on an orbital shaker. After an incubation of 2.5 hrs, read plates in a Wallac Microbeta counter. […] The Kd for ^3H-Estradiol is determined by saturation binding to ER alpha and ER beta receptors. The IC50 values for compounds are converted to Ki using Cheng-Prusoff equation and the Kd determined by saturation binding assay.

[2] = biological target: T2, ERbeta receptor (PanVera) (Homo sapiens, UniProt Q92731); experiment: ER competition binding assay (3H-Estradiol), ERbeta; details: IC50 converted to Ki by Cheng-Prusoff; 3H-Estradiol competition; A = class at 10 microMolar; read-out: Ki (ERβ)
T2 construct: purchased PanVera
T2 sequence (Q92731 whole entry): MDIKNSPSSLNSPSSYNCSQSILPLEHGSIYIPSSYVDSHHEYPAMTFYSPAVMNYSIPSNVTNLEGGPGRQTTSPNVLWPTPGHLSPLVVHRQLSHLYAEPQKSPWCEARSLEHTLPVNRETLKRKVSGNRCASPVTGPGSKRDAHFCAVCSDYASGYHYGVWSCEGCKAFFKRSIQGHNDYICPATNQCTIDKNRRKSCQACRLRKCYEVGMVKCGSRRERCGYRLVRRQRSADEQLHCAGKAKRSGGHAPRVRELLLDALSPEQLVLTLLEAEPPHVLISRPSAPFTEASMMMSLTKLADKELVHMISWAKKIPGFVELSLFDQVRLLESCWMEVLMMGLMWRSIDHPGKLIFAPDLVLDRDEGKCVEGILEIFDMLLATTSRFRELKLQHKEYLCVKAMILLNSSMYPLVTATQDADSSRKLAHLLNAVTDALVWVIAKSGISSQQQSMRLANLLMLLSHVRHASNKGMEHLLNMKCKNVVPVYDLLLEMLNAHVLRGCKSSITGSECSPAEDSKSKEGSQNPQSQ
Protocol: as §1

[3] = tested on: MCF-7 breast adenocarcinoma cells; experiment: MCF-7 Proliferation Assay; assay type: cell-based; details: antagonist mode, E2 10 pM, 14C-thymidine, B = class at 1 micromolar; for IC50: Homo sapiens, MCF7
Protocol: MCF-7 Proliferation Assay
MCF-7 breast adenocarcinoma cells (ATCC HTB 22) are maintained in MEM (minimal essential medium, phenol red-free, Gibco BRL) supplemented with 10% fetal bovine serum (FBS) (VN), L-glutamine (2 mM), sodium pyruvate (1 mM), HEPES ((N-[2-hydroxyethyl]piperazine-N′-[2-ethanesulfonic acid]) 10 mM}, non-essential amino acids(0.1 mM)and Penicillin Streptomycin(1×). Seven days prior to assay, MCF-7 cells are switched to assay media which is the same as maintenance medium except supplemented with 10% dextran-coated charcoal-stripped fetal bovine serum (DCC-FBS) assay medium in place of 10% FBS. MCF-7 cells are removed from flasks using 10× Trypsin EDTA (phenol red free, Gibco BRL) and diluted to 1× in (Ca++/Mg++ free HBSS (phenol red-free). Cells are adjusted to 80,000 cells/ml in assay medium. Approximately 8,000 cells (100 μl) are added to each well in 96 well Cytostar T scintillation plates (Amersham) and incubated at 37° C. in a 5% CO2 humidified incubator for 24 hours to allow cell adherence and equilibration after transfer. Serial dilutions of drugs are prepared in assay medium at 4× the final desired concentration). A 50 μl aliquot of drug dilutions (at 4× the final assay concentration) is transferred to duplicate wells followed by 50 μl assay medium for the agonist mode or 50 μl of 40 pM of E2 for the antagonist mode to a final volume of 200 μl. For each of the agonist plates, a basal level (media) and a maximum stimulated level (with 1 μM E2) is determined. For each of the antagonist plates, a basal level (media) and a E2 (10 pM) alone control is determined. After an additional 48 hours at 37° C. in a 5% CO2 humidified incubator, 20 μl of assay medium containing 0.01 μCi of ^14C-thymidine (52 mCi/mmol, […], Amersham) is added to each well. The plates are incubated overnight in the same incubator and then counted on the Wallac Microbeta counter. […] For the agonist mode, an EC50 and percent of maximum E2 stimulation and concentration of maximum stimulation is calculated.

[4] = tested on: Ishikawa human endometrial tumor cells; experiment: Ishikawa Alkaline Phosphatase Assay; assay type: cell-based; details: for EC50 / IC50: Homo sapiens, Ishikawa; for EC50 / Agonist % Eff: agonist mode; for IC50 / % Eff: antagonist mode; for IC50: with E2 (1 nM); for Agonist % Eff: % efficacy versus the response to Tamoxifen; for % Eff: % efficacy versus E2 (1 nM) alone
Description: Ishikawa Alkaline Phosphatase Assay
Ishikawa human endometrial tumor cells are maintained in MEM (minimum essential medium, with Earle's salts and L-Glutamine, Gibco BRL, Gaithersburg, Md.), supplemented with 10% fetal bovine serum (FBS) (V/V), (Gibco BRL). One day prior to assay, growth media is changed to assay medium, DMEM/F-12 (3:1) (Dulbecco's Modified Eagle Medium: Nutrient Mixture F-12, 3:1 Mixture, phenol red-free, Gibco BRL) supplemented with 5% dextran coated charcoal stripped fetal bovine serum (DCC-FBS) (Hyclone, Logen, Utah), L-Glutamine (2 mM), MEM sodium pyruvate (1 mM), HEPES (N-[2-hydroxyethyl]piperazine-N′-[2-ethanesulfonic acid] 2 mM) all from Gibco BRL). After an overnight incubation, ishikawa cells are rinsed with Dulbecco's
Phosphate Buffered Saline (1×) (D-PBS) without Ca^+2 and Mg^+2 (Gibco BRL), and typsinized by a 3 minute incubation with 0.25% Trypsin/EDTA, phenol red-free (Gibco BRL). Cells are resuspended in assay medium and adjusted to 250,000 cells/ml. Approximately 25,000 cells in a 100 ul media are added to flat-bottom 96 wells microculture plates (Costar 3596) and incubated at 37° C. in a 5% CO2 humidified incubator for 24 hours. The next day, serial dilutions of compounds are prepared in assay medium (at 6 times the final concentration in the assay). The assay is run in dual mode, agonist and antagonist modes. For the agonist mode, plates receive 25 μl/well of assay medium followed by 25 μl/well of diluted compounds (at 6× the final concentrations). For the antagonist mode, plates receive 25 μl/well of 6 nM E2 (β-Estradiol, Sigma, St. Louis, Mo.) followed by 25 μl/well of diluted compounds (at 6× the final concentrations). After an additional 48-hour incubation at 37° C. in a 5% CO2 humidified incubator, media is aspirated from wells and 100 μl fresh assay medium is added to each microculture. Serial dilutions of compounds are prepared and added to the cells as described above. After an additional 72 hour incubation at 37° C. in a 5% CO2 humidified incubator, the assay is quenched by removing media and rinsing plates twice in Dulbecco's Phosphate Buffered Saline (1×) (D-PBS) (Gibco BRL). The plates are dried for 5 min and frozen at −70° C. for at least 1 hour. The plates are then removed from the freezer and allowed to thaw at room temperature. To each well, 100 μl of 1-Step™ PNPP (Pierce Chemical Company, Rockford, Ill.) is added. After a 20-minute incubation, plates are read on a spectophotometer at 405 nm. The data is fitted to a linear interpolation to derive EC50 (for agonist mode) or IC50 (for antagonist mode) values. For the agonist mode, a % efficacy for each compound is calculated versus the response to Tamoxifen. For the antagonist mode, a % efficacy for each compound is calculated versus E2 (1 nM) alone.

Ki [1] [nM]	Ki [2] [nM]	IC50 [3] [nM]	EC50 [4] [nM]	IC50 [4] [nM]	SMILES	Agonist % Eff [4] [%]	% Eff [4] [%]	IC50 (MCF7) [3]
28.9			84.8	667	O=C(c1ccc(OCCN2CCCCC2)cc1)N1c2ccc(O)cc2CCC1c1ccccc1 (stereo not drawn) [Example 4]	44	47	
0.4		477	219		Oc1ccc(C2CCc3cc(O)ccc3N2Cc2ccc(OCCN3CCCCC3)cc2)cc1 (stereo not drawn) [Example 7, 2-(4-Hydroxy-phenyl)-1-[4-(2-piperidin-1-yl-ethoxy)-benzyl)-1,2,3,4-tetrahydroquinolin-6-ol]	28	17	
87.8	1160	989	239		O=C(c1ccc(OCCN2CCCCC2)cc1)N1c2ccc(O)cc2CCC1c1ccc(O)cc1 (stereo not drawn) [Example 3]	29	17	
			22.9		COc1ccc(C2CCc3cc(OC)ccc3N2C(=O)c2ccc(OCCN3CCCCC3)cc2)cc1 (stereo not drawn) [Example 1, [6-Methoxy-2-(4-methoxyphenyl)-3,4-dihydro-2H-quinolin-1-yl]-[4-4-(2-piperidin-1-yl-ethoxy)phenyl]methanone]	18	18	B^† (B means < 50% inhibition at 1 micromolar)

Second part, the compound before the results:

SMILES	Ki [1] [nM]	Ki [2] [nM]	IC50 [3] [nM]	EC50 [4] [nM]	IC50 [4] [nM]	Agonist % Eff [4] [%]	% Eff [4] [%]	IC50 (MCF7) [3]
Oc1ccc2c(c1)CCC(c1ccccc1)N2Cc1ccc(OCCN2CCCCC2)cc1 (stereo not drawn) [Example 8, 2-Phenyl-1-[4-(2-piperidin-1-yl-ethoxy)-benzyl]-1,2,3,4-tetrahydroquinolin-6-ol]	1.3	4.1	532	28.4	716	31	63	
COc1ccc2c(c1)CCC(c1ccccc1)N2C(=O)c1ccc(OCCN2CCCCC2)cc1 (stereo not drawn) [Example 2]						−5	28	B (B means < 50% inhibition at 1 micromolar)
Oc1cccc(C2CCc3cc(O)ccc3N2Cc2ccc(OCCN3CCCCC3)cc2)c1 (stereo not drawn) [Example 12, 2-(3-Hydroxy-phenyl)-1-[4-(2-piperidin-1-yl-ethoxy)-benzyl]-1,2,3,4-tetrahydro-quinolin-6-ol]		5.9	385	142	892	29	31	
